PMC11891452, “Molecular Insights Into β‐Glucuronidase Inhibition by Alhagi Graecorum Flavonoids: A Computational and Experimental Approach” (ChemistryOpen, 2024)

Columns and labels:
β‐glucuronidase [1] = molecular target: T1, β‐glucuronidase (Escherichia coli, UniProt P05804); test: inhibition kinetics (Michaelis‐Menten, Lineweaver‐Burk and slope plots) of PNPG hydrolysis; format: biochemical; settings: for mode of inhibition: Lineweaver‐Burk plots, PNPG hydrolysis; for Ki: PNPG 200-1000 μM, from slope plots of Lineweaver‐Burk plots
T1 construct: purchased Sigma (USA)
T1 sequence (P05804 whole entry): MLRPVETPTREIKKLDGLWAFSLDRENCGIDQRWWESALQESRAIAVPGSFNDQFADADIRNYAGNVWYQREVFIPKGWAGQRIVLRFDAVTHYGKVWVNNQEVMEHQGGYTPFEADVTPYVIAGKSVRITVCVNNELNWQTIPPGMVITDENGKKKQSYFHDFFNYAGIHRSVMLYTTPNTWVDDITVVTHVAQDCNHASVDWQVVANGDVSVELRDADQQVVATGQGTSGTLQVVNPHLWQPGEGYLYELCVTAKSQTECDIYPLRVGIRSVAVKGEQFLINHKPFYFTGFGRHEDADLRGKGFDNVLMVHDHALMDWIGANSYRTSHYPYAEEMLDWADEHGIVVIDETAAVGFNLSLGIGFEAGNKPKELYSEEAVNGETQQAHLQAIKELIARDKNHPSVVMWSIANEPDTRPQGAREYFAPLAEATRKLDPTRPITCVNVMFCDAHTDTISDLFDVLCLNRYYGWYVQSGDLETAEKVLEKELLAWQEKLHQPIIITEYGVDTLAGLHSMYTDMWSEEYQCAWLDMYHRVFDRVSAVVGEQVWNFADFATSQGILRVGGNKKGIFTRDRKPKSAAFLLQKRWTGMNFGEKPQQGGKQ
Description: To analyze the binding interactions between the tested inhibitors and the target enzyme, we constructed Michaelis‐Menten and Lineweaver‐Burk plots. These plots helped us understand how the inhibitors affect the enzyme′s kinetics. The Lineweaver‐Burk plot′s intersection point was used to identify the inhibition mode (noncompetitive, competitive, uncompetitive, or mixed). Established methods were employed to determine the specific inhibition mode and Ki values.[27, 28]
(§1) To ensure reproducibility, all data are presented as the mean value±standard deviation (SD). This reflects the average value obtained from three independent trials. IC50 values, signifying the inhibitor concentration required for half‐maximal response, were determined from the concentration‐response curves. The IC50 and inhibition constant (Ki) values were estimated using nonlinear regression by the GraphPad Prism 9.0 software.

β‐glucuronidase [2] = molecular target: T1, β‐glucuronidase; test: in vitro β‐glucuronidase inhibition assay with PNPG as substrate; format: biochemical; settings: pH 7.4, 37 °C, 30 min, mean±SD; for IC50: PNPG substrate; for inhibition at 10 µM: inhibitor 10 μM, PNPG 250 μM, read-out: Inhibition rate 10 μM (%)
Description: The substrate p‐Nitrophenyl‐β‐D‐glucuronide (PNPG) and the employed reference drug (−)‐Epigallocatechin gallate (EGCG) were purchased from Sigma‐Aldrich. For this study, β‐glucuronidase, the enzyme of interest, was purchased from Sigma (USA). All other chemicals and solvents used were in the highest purity state or HPLC grade. Five isolated flavonoids from A. graecorum were assigned for their β‐glucuronidase inhibitory efficacy. We prepared the β‐glucuronidase enzyme according to the method reported by Weng et al..[27] A 100 mM stock solution of the substrate (PNPG) was prepared using […] and stored at −20 °C for subsequent utilization. Milli‐Q water was used exclusively for both the PNPG solution and the 0.1 M phosphate buffer solution (pH 7.4).
To estimate the activities of tested flavonoids as inhibitors against β‐glucuronidase, we employed PNPG as the substrate. The assessment procedure followed well‐documented previously reported protocols.[28] In brief, 96‐well plate assays were performed (100 μL/well) to assess β‐glucuronidase inhibition by flavonoids. Each well contained: β‐glucuronidase (2 μg/mL, 10 μL), flavonoid/EGCG inhibitor (10 μM, 10 μL), PNPG substrate (250 μM, 10 μL), and PBS buffer (pH 7.4, 70 μL). Reactions were done in triplicate. Enzyme activity was estimated by tracking PNP formation (OD₄₁₀ nm) after incubation (37 °C, 30 min). A standard curve (0–120 μM PNP) was used to quantify PNP. Relative activity (%) was calculated compared to the blank control. In addition, EGCG was employed as a reference drug. IC50 assays for flavonoid inhibition of β‐glucuronidase were conducted at temperature of 37 °C for 30 minutes. Each reaction contained: β‐glucuronidase (2.0 μg/mL, 10 μL), flavonoid/EGCG (varying concentrations, 0.001–1000 μM, 10 μL), and PBS buffer (pH 7.4, 70 μL). Relative activity (%) was measured as enzyme activity with an inhibitor compared to activity without an inhibitor. A concentration‐response curve was constructed using relative activity data to determine IC50 values.
as §1

## O=C(O[C@@H]1Cc2c(O)cc(O)cc2O[C@@H]1c1cc(O)c(O)c(O)c1)c1cc(O)c(O)c(O)c1 [EGCG, (−)‐Epigallocatechin gallate, reference compound]
β‐glucuronidase [1]
  mode of inhibition: mixed
  Ki: 1.42 µM
β‐glucuronidase [2]
  IC50: 3.26 ± 0.05 µM
  inhibition at 10 µM: 96.14 ± 0.54%

## COc1cc(-c2oc3cc(O)cc(O)c3c(=O)c2O)ccc1O [isorhamnetin]
β‐glucuronidase [2]
  IC50: 26.4 ± 0.72 µM
  inhibition at 10 µM: 73.9 ± 1.09%

## O=c1c(O)c(-c2cc(O)c(O)c(O)c2)oc2cc(O)cc(O)c12 [myricetin]
β‐glucuronidase [1]
  mode of inhibition: noncompetitive
  Ki: 3.07 µM
β‐glucuronidase [2]
  IC50: 3.95 ± 0.04 µM
  inhibition at 10 µM: 92.59 ± 0.56%

## O=C1C[C@@H](c2ccc(O)cc2)Oc2cc(O)cc(O)c21 [naringenin]
β‐glucuronidase [2]
  IC50: 52.3 ± 2.44 µM
  inhibition at 10 µM: 56 ± 2.5%

## COc1cc(-c2cc(=O)c3c(O)cc(O)cc3o2)ccc1O [chrysoeriol]
β‐glucuronidase [1]
  mode of inhibition: noncompetitive
β‐glucuronidase [2]
  inhibition at 10 µM: 87.97 ± 0.65%

## COc1ccc(-c2oc3cc(O)cc(O)c3c(=O)c2O)cc1O [tamarixetin]
β‐glucuronidase [2]
  IC50: 19.9 ± 1.23 µM
  inhibition at 10 µM: 80 ± 1.71%
